Assay results taken from the supplement of paper PMC13380429.

Legend:
Conditions in all cases: 72 h
Calu-3 [1] = test: cell viability relative to DMSO; higher = less toxic
HepG2 [2] = test: as above
Caco-2 [3] = test: as above
U2OS [4] = test: as above
Vero E6 [5] = test: as above
HepG2 [6] = test: relative viability EC50 (midpoint between 100% and the lowest measured viability); higher = less toxic
Caco-2 [7] = test: as above
U2OS [8] = test: as above
Calu-3 [9] = test: drug sensitivity score (DSS) for viability; higher = more toxic; extreme values may be limits of the assay
HepG2 [10] = test: as above
Caco-2 [11] = test: as above
U2OS [12] = test: as above
Vero E6 [13] = test: as above
Calu-3 [14] = test: relative viability EC50 (midpoint between 100% and the lowest measured viability); higher = less toxic
Vero E6 [15] = test: as above

| Structure (SMILES) | cell viability (Calu-3 [1]; 1 nM) | cell viability (Calu-3 [1]; 10 nM) | cell viability (Calu-3 [1]; 100 nM) | cell viability (Calu-3 [1]; 1000 nM) | cell viability (Calu-3 [1]; 10000 nM) | cell viability (HepG2 [2]; 1 nM) | cell viability (HepG2 [2]; 10 nM) | cell viability (HepG2 [2]; 100 nM) | cell viability (HepG2 [2]; 1000 nM) | cell viability (HepG2 [2]; 10000 nM) | cell viability (Caco-2 [3]; 1 nM) | cell viability (Caco-2 [3]; 10 nM) | cell viability (Caco-2 [3]; 100 nM) | cell viability (Caco-2 [3]; 1000 nM) | cell viability (Caco-2 [3]; 10000 nM) | cell viability (U2OS [4]; 1 nM) | cell viability (U2OS [4]; 10 nM) | cell viability (U2OS [4]; 100 nM) | cell viability (U2OS [4]; 1000 nM) | cell viability (U2OS [4]; 10000 nM) | cell viability (Vero E6 [5]; 1 nM) | cell viability (Vero E6 [5]; 10 nM) | cell viability (Vero E6 [5]; 100 nM) | cell viability (Vero E6 [5]; 1000 nM) | cell viability (Vero E6 [5]; 10000 nM) | relative viability EC50 (HepG2 [6]) | relative viability EC50 (Caco-2 [7]) | relative viability EC50 (U2OS [8]) | drug sensitivity score (Calu-3 [9]) | drug sensitivity score (HepG2 [10]) | drug sensitivity score (Caco-2 [11]) | drug sensitivity score (U2OS [12]) | drug sensitivity score (Vero E6 [13]) | relative viability EC50 (Calu-3 [14]) | relative viability EC50 (Vero E6 [15]) |
| --- | --- | --- | --- | --- | --- | --- | --- | --- | --- | --- | --- | --- | --- | --- | --- | --- | --- | --- | --- | --- | --- | --- | --- | --- | --- | --- | --- | --- | --- | --- | --- | --- | --- | --- | --- |
| Cc1ccc2c(Br)cc(Br)c(OC(=O)c3ccccc3)c2n1 [broxaldine] | 103% | 99.8% | 87.6% | 97.4% | 66.5% | 111% | 95.5% | 116% | 93.7% | 19.6% | 84.9% | 100% | 84.9% | 93.8% | 29.2% | 98.2% | 102% | 98% | 92.7% | 42.4% | 109% | 108% | 109% | 98.3% | 54.8% | 2530 nM | 2440 nM | 2140 nM | 2 | 5.4 | 4.9 | 4.3 | 2.5 | – | – |
| Cc1cc(C2CCCCC2)n(O)c(=O)c1 [ciclopirox] | 108% | 109% | 94.3% | 95.7% | 44.8% | 91.8% | 96.4% | 95.9% | 85.9% | 27.2% | 99.9% | 90.1% | 96% | 77% | 38.7% | 105% | 95.2% | 101% | 87.9% | 52.1% | 94.6% | 100% | 90.1% | 89.6% | 63.4% | 1760 nM | 1310 nM | – | 3.6 | 6.3 | 6.1 | 4.4 | 2.7 | 2520 nM | – |
| N#CCNC(=O)c1ccc(-c2ccnc(Nc3ccc(N4CCOCC4)cc3)n2)cc1 [cyt387] | – | – | – | – | – | 109% | 105% | 101% | 88.7% | 21.6% | 99.5% | 103% | 101% | 103% | 61.8% | 99.9% | 107% | 99.4% | 95.6% | 36.6% | 102% | 100% | 96.6% | 94.7% | 52.5% | 2020 nM | – | 2600 nM | – | 6.2 | 1.6 | 4.1 | 3.4 | – | – |
| CCN(CC)S(=O)(=O)c1ccc(C(=O)O)cc1 [etebenecid] | 110% | 93.9% | 106% | 95.2% | 111% | 109% | 110% | 98.4% | 112% | 101% | 99.7% | 110% | 107% | 92.5% | 108% | – | – | – | – | – | – | – | – | – | – | > 10000 nM | > 10000 nM | – | 0 | 0 | 0 | – | – | > 10000 nM | – |
| CCc1nc(C(N)=O)c(Nc2ccc(N3CCC(N4CCN(C)CC4)CC3)c(OC)c2)nc1NC1CCOCC1 [gilteritinib] | 96.4% | 95.8% | 96.3% | 94.1% | 59.8% | 99.2% | 92.1% | 92.4% | 73.5% | 27.9% | 110% | 98.1% | 102% | 90.2% | 54.4% | 105% | 102% | 99.1% | 93.1% | 46% | 106% | 103% | 100% | 101% | 37.2% | 1360 nM | – | 2120 nM | 3 | 7 | 3.9 | 4.1 | 3.3 | – | 3250 nM |
| Cc1ccccc1C(=O)Nc1ccc(C(=O)N2CCCC(N(C)C)c3ccccc32)cc1 (stereo not given) [mozavaptan] | 94.9% | 109% | 95.6% | 105% | 64.9% | 98.2% | 99.5% | 93.3% | 99.5% | 44.3% | 97% | 99.8% | 88.8% | 76.6% | 70.2% | 98.1% | 102% | 94.5% | 98% | 48.8% | 100% | 103% | 98.3% | 98.4% | 51.6% | 3100 nM | – | 2870 nM | 1.4 | 3.1 | 4.7 | 3 | 2.7 | – | – |
| C[C@](O)(COc1ccc(C#N)cc1)C(=O)Nc1ccc(C#N)c(C(F)(F)F)c1 [ostarine] | 109% | 98.9% | 99.4% | 95.9% | 97.9% | 107% | 107% | 103% | 109% | 92.8% | – | – | – | – | – | – | – | – | – | – | – | – | – | – | – | > 10000 nM | – | – | 0 | 0 | – | – | – | > 10000 nM | – |
| CCCCCCCC/C=C/C(=O)O [trans-2-undecenoic-acid] | 104% | 95.1% | 96.4% | 104% | 108% | 106% | 104% | 101% | 105% | 95.8% | 109% | 105% | 108% | 93.5% | 98.9% | 101% | 97% | 102% | 100% | 99.5% | – | – | – | – | – | > 10000 nM | > 10000 nM | > 10000 nM | 0 | 0 | 0 | 0 | – | > 10000 nM | – |
